Like-named read-outs stand apart in the source and are kept apart here.
System: WEEV replicon
Experiment: microbe, parasite or virus in culture
Type: cell-based, Western equine encephalitis virus
Settings: Western equine encephalitis virus; for activity at 2 µM: read-out: Activity (% control LUC) 2 μM; for activity at 10 µM: read-out: Activity (% control LUC) 10 μM
[1] = read-out: 50 μM (% control) Luc
[2] = read-out: Activity (% control LUC) 50 μM

SMILES	IC50	activity at 50 µM [1]	IC50 (read-out: Activity IC50 (μM))	activity at 2 µM	activity at 10 µM	activity at 50 µM [2]
O=C(c1cc2ccccc2n1Cc1ccc(Cl)cc1)N1CCC(CN2CCCCC2)CC1 [CCG 205476, (1-(4-chlorobenzyl)-1H-indol-2-yl)(4-(piperidin-1-ylmethyl)piperidin-1-yl)methanone]	9.8 µM	6.5%	–	–	–	–
COc1cccc(CCNC(=O)C2CCN(C(=O)c3cc4ccccc4n3Cc3ccc(Cl)cc3)CC2)c1 [CCG 206395, 1-(1-(4-chlorobenzyl)-1H-indole-2-carbonyl)-N-(3-methoxyphenethyl)piperidine-4-carboxamide]	11.7 µM	38.4%	–	–	–	–
O=C(NCc1ccccc1)C1CCN(C(=O)c2cc3ccccc3n2Cc2ccc(F)cc2)CC1 [CCG 203880, N-benzyl-1-(1-(4-fluorobenzyl)-1H-indole-2-carbonyl)piperidine-4-carboxamide]	–	–	25 µM	134%	121%	67%
O=C(c1cc2ccccc2n1Cc1ccc(Cl)cc1)N1CCC(C(=O)N2Cc3ccccc3C2)CC1 [CCG 205470, (1-(4-chlorobenzyl)-1H-indol-2-yl)(4-(isoindoline-2-carbonyl)piperidin-1-yl)methanone]	–	51.8%	–	–	–	–
O=C(c1cc2ccccc2n1Cc1ccc(F)cc1)N1CCC(C(O)c2ccccc2)CC1 (centres unmarked) [CCG 204056, (1-(4-fluorobenzyl)-1H-indol-2-yl)(4-(hydroxy(phenyl)methyl)piperidin-1-yl)methanone]	–	–	16 µM	99.3%	71.7%	8.3%
Cc1ccc(CCNCC2CCN(C(=O)c3cc4ccccc4n3Cc3ccc(F)cc3)CC2)cc1 [CCG 206486, (1-(4-fluorobenzyl)-1H-indol-2-yl)(4-(((4-methylphenethyl)amino)methyl)piperidin-1-yl)methanone]	6.1 µM	0%	–	–	–	–
O=C(c1cc2ccccc2n1Cc1ccc(F)cc1)N1CCN(Cc2ccccc2)CC1 [CCG 203942, (4-benzylpiperazin-1-yl)(1-(4-fluorobenzyl)-1H-indol-2-yl)methanone]	–	–	12.8 µM	116%	73.8%	48.9%
C[C@H](NCC1CCN(C(=O)c2cc3ccccc3n2Cc2ccc(F)cc2)CC1)c1ccccc1 [CCG 206501, (S)-(1-(4-fluorobenzyl)-1H-indol-2-yl)(4-(((1-phenylethyl)amino)methyl)piperidin-1-yl)methanone]	8.9 µM	0%	–	–	–	–
O=C(c1cc2ccccc2n1Cc1ccc(F)cc1)N1CCC(CN2CCCCC2)CC1 [CCG 204055, (1-(4-fluorobenzyl)-1H-indol-2-yl)(4-(piperidin-1-ylmethyl)piperidin-1-yl)methanone]	–	–	13.3 µM	89.7%	69.9%	40%
O=C(NCCc1ccc(Cl)cc1)C1CCN(C(=O)c2cc3ccccc3n2Cc2ccc(Cl)cc2)CC1 [CCG 206400, 1-(1-(4-chlorobenzyl)-1H-indole-2-carbonyl)-N-(4-chlorophenethyl)piperidine-4-carboxamide]	7.45 µM	28.6%	–	–	–	–
O=C(NCCc1ccccn1)C1CCN(C(=O)c2cc3ccccc3n2Cc2ccc(Cl)cc2)CC1 [CCG 205456, 1-(1-(4-chlorobenzyl)-1H-indole-2-carbonyl)-N-(2-(pyridin-2-yl)ethyl)piperidine-4-carboxamide]	22.4 µM	24.1%	–	–	–	–
Cc1ccc(CCNC(=O)C2CCN(C(=O)c3cc4ccccc4n3Cc3ccc(Cl)cc3)CC2)cc1 [CCG 102518, 1-(1-(4-chlorobenzyl)-1H-indole-2-carbonyl)-N-(4-methylphenethyl)piperidine-4-carboxamide]	–	–	4.2 µM	83%	33.8%	32.2%
COC(=O)c1cccc(NC(=O)C2CCN(C(=O)c3cc4ccccc4n3Cc3ccc(Cl)cc3)CC2)c1 [CCG 204057, Methyl 3-(1-(1-(4-chlorobenzyl)-1H-indole-2-carbonyl)piperidine-4-carboxamido)benzoate]	–	–	35.6 µM	87.9%	54%	50.9%
CN(Cc1ccccc1)C(=O)C1CCN(C(=O)c2cc3ccccc3n2Cc2ccc(C#N)cc2)CC1 [CCG 206330, N-benzyl-1-(1-(4-cyanobenzyl)-1H-indole-2-carbonyl)-N-methylpiperidine-4-carboxamide]	79.3 µM	45.2%	–	–	–	–
Cn1cnc(CNC(=O)C2CCN(C(=O)c3cc4ccccc4n3Cc3ccc(Cl)cc3)CC2)c1 [CCG 205455, 1-(1-(4-chlorobenzyl)-1H-indole-2-carbonyl)-N-((1-methyl-1H-imidazol-4-yl)methyl)piperidine-4-carboxamide]	–	50.8%	–	–	–	–
O=C(NCc1ccccc1)C1CCCN(C(=O)c2cc3ccccc3n2Cc2ccc(Cl)cc2)C1 (centres unmarked) [CCG 205483, N-benzyl-1-(1-(4-chlorobenzyl)-1H-indole-2-carbonyl)piperidine-3-carboxamide]	30.6 µM	44.1%	–	–	–	–
C#CCn1c(C(=O)N2CCC(C(=O)N(C)Cc3ccccc3)CC2)cc2ccccc21 [CCG 206401, N-benzyl-N-methyl-1-(1-(prop-2-yn-1-yl)-1H-indole-2-carbonyl)piperidine-4-carboxamide]	–	57.4%	–	–	–	–

SMILES	IC50	activity at 50 µM [1]	IC50 (read-out: Activity IC50 (μM))	activity at 2 µM	activity at 10 µM	activity at 50 µM [2]
COc1ccc(Cn2c(C(=O)N3CCC(C(=O)N(C)Cc4ccccc4)CC3)cc3ccccc32)cc1 [CCG 205477, N-benzyl-1-(1-(4-methoxybenzyl)-1H-indole-2-carbonyl)-N-methylpiperidine-4-carboxamide]	16.5 µM	33.3%	–	–	–	–
O=C(c1cc2ccccc2n1Cc1ccc(F)cc1)N1CCC(CNCc2ccccc2)CC1 [CCG 206500, (4-((benzylamino)methyl)piperidin-1-yl)(1-(4-fluorobenzyl)-1H-indol-2-yl)methanone]	6.5 µM	0%	–	–	–	–
CC(C)Cn1c(C(=O)N2CCC(C(=O)N(C)Cc3ccccc3)CC2)cc2ccccc21 [CCG 206332, N-benzyl-1-(1-isobutyl-1H-indole-2-carbonyl)-N-methylpiperidine-4-carboxamide]	27.9 µM	1.7%	–	–	–	–
COc1ccc(CCNC(=O)C2CCN(C(=O)c3cc4ccccc4n3Cc3ccc(Cl)cc3)CC2)cc1 [CCG 206398, 1-(1-(4-chlorobenzyl)-1H-indole-2-carbonyl)-N-(4-methoxyphenethyl)piperidine-4-carboxamide]	7.1 µM	12.9%	–	–	–	–
CN(Cc1ccccc1)C(=O)C1CCN(C(=O)c2cc3ccccc3n2C)CC1 [CCG 205428, N-benzyl-N-methyl-1-(1-methyl-1H-indole-2-carbonyl)piperidine-4-carboxamide]	–	77.2%	–	–	–	–
CC(NC(=O)C1CCN(C(=O)c2cc3ccccc3n2Cc2ccc(Cl)cc2)CC1)C1Cc2ccccc2C1 (centres unmarked) [CCG 206549, 1-(1-(4-chlorobenzyl)-1H-indole-2-carbonyl)-N-(1-(2,3-dihydro-1H-inden-2-yl)ethyl)piperidine-4-carboxamide]	1.7 µM	36.9%	–	–	–	–
O=C(NCC1COc2cnccc21)C1CCN(C(=O)c2cc3ccccc3n2Cc2ccc(Cl)cc2)CC1 (centres unmarked) [CCG 206581, 1-(1-(4-chlorobenzyl)-1H-indole-2-carbonyl)-N-((2,3-dihydrofuro[2,3-c]pyridin-3-yl)methyl)piperidine-4-carboxamide]	3.58 µM	8.6%	–	–	–	–
CN(Cc1ccccc1)C(=O)C1CCN(C(=O)c2cc3ccccc3n2Cc2ccccc2)CC1 [CCG 205404, N-benzyl-1-(1-benzyl-1H-indole-2-carbonyl)-N-methylpiperidine-4-carboxamide]	16.9 µM	20.5%	–	–	–	–
O=C(NCCc1ccc(F)cc1)C1CCN(C(=O)c2cc3ccccc3n2Cc2ccc(Cl)cc2)CC1 [CCG 206396, 1-(1-(4-chlorobenzyl)-1H-indole-2-carbonyl)-N-(4-fluorophenethyl)piperidine-4-carboxamide]	10.6 µM	34.9%	–	–	–	–
O=C(NCCc1cccnc1)C1CCN(C(=O)c2cc3ccccc3n2Cc2ccc(Cl)cc2)CC1 [CCG 205433, 1-(1-(4-chlorobenzyl)-1H-indole-2-carbonyl)-N-(2-(pyridin-3-yl)ethyl)piperidine-4-carboxamide]	5.34 µM	1.9%	–	–	–	–
O=C(c1cc2ccccc2n1Cc1ccc(Cl)cc1)N1CCC(C(=O)N2CCN(Cc3cccnc3)CC2)CC1 [CCG 205430, (1-(4-chlorobenzyl)-1H-indol-2-yl)(4-(4-(pyridin-3-ylmethyl)piperazine-1-carbonyl)piperidin-1-yl)methanone]	13.1 µM	3.55%	–	–	–	–
Cc1cccc(CNC(=O)C2CCN(C(=O)c3cc4ccccc4n3Cc3ccc(Cl)cc3)CC2)c1 [CCG 204042, 1-(1-(4-chlorobenzyl)-1H-indole-2-carbonyl)-N-(3-methylbenzyl)piperidine-4-carboxamide]	–	–	9.8 µM	93.7%	59.5%	64.4%
CC(CNC(=O)C1CCN(C(=O)c2cc3ccccc3n2Cc2ccc(Cl)cc2)CC1)c1ccncc1 (centres unmarked) [CCG 206580, 1-(1-(4-chlorobenzyl)-1H-indole-2-carbonyl)-N-(2-(pyridin-4-yl)propyl)piperidine-4-carboxamide]	1.66 µM	13.4%	–	–	–	–
O=C(c1cc2ccccc2n1Cc1ccc(F)cc1)N1CCC(CN2CCOCC2)CC1 [CCG 206502, (1-(4-fluorobenzyl)-1H-indol-2-yl)(4-(morpholinomethyl)piperidin-1-yl)methanone]	40.6 µM	39.1%	–	–	–	–
O=C(c1cc2ccccc2n1Cc1ccc(Cl)cc1)N1CCC(C(=O)N2CCOCC2)CC1 [CCG 204024, (1-(4-chlorobenzyl)-1H-indol-2-yl)(4-(morpholine-4-carbonyl)piperidin-1-yl)methanone]	–	–	12.3 µM	74.9%	47.4%	8.3%
O=C(NCc1ccccc1)C1CCN(C(=O)c2nccn2Cc2ccc(Cl)cc2)CC1 [CCG 206586, N-benzyl-1-(1-(4-chlorobenzyl)-1H-imidazole-2-carbonyl)piperidine-4-carboxamide]	–	69.5%	–	–	–	–

Reference: patent publication US8846684B2 (priority 2011, dated 2014)
